The text below walks through data of US20160296499A1, “Spiroindoline Antiparasitic Derivatives” (ZOETIS SERVICES LLC, priority 2013, published 2016).

Molecules are shown by their SMILES. Where two headings read alike, the source gives them in different places.

For orientation: Ki means the dissociation constant of the complex between target and ligand, obtained from inhibition or displacement.

Experiment [1] addresses T1, bovine vesicular acetylcholine transporter (VAChT) (Bos taurus, UniProt E1BK36).
T1 sequence (E1BK36 1-524): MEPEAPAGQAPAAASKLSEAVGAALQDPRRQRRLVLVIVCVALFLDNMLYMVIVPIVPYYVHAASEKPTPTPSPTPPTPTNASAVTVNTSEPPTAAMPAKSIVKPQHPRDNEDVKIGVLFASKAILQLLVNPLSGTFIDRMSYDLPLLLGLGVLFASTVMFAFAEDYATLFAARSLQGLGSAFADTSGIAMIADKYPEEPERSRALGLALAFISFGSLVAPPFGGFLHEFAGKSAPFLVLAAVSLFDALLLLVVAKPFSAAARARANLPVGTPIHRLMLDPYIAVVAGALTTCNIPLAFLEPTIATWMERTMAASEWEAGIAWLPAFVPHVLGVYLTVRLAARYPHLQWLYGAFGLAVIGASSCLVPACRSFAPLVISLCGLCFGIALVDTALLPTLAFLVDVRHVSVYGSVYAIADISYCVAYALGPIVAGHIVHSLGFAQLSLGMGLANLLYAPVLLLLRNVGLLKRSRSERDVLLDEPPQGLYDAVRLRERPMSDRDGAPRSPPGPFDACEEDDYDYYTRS
In words: Radioligand Binding Assay. Particulars: Bovine binding Ki, CHO-K1 membranes with recombinant bovine VAChT, [3H]Compound X6 0.3 nM.

The test system of experiment [2] is Dirofilaria immitis microfilariae. In words: Dirofilaria immitis, Microfilariae (DiMF) In Vitro Assay. The conditions noted are these: Dirofilaria immitis.
The next experiment concerns Haemonchus contortus L3. In words: Haemonchus contortus, Larvae Stage 3 (HcL3) In Vitro Assay. The conditions noted are these: Haemonchus contortus.
Setting [3] is: 96 hours, 37° C., read-out: HcL3 MEC.
[4] abbreviates: 72 h, read-out: Di MF, MEC, decrease in microfilariae motility by visual assessment, curve starting at 100 μM.
The mark [5] stands for this setting: 96 h, read-out: HcL3 MEC, Minimal Effective Concentration whereby worm motility is inhibited by approximately 70%, 37° C., tested 0.001-100 μM.

For `O=C(NCc1cnc(Cl)s1)N1CC2(CCN(C/C=C/c3ccc(Cl)cc3)CC2)c2c1ccc(Cl)c2Cl` [Example 64, (E)-4,5-dichloro-1′-(3-(4-chlorophenyl)allyl)-N-((2-chlorothiazol-5-yl)methyl)spiro[indoline-3,4′-piperidine]-1-carboxamide], in experiment [1], the Ki was 116 nM. Besides, the minimal effective concentration came to 5.7 µM in experiment [2] (72 hours, read-out: Di MF) and 10 µM in the experiment with Haemonchus contortus L3 (setting [3]).

For the compound `COc1cc2c(cn1)C1(CCN(C/C=C/c3ccc(Cl)c(Cl)c3)CC1)CN2C(=O)NCc1ccnc(Cl)c1` [Example 65, (E)-N-((2-chloropyridin-4-yl)methyl)-1-(3-(3,4-dichlorophenyl)allyl)-6′-methoxyspiro[piperidine-4,3′-pyrrolo[3,2-c]pyridine]-1′(2′H)-carboxamide], the inhibition constant Ki in experiment [1] is 49.4 nM. Moreover, the minimal effective concentration in experiment [2] (setting [4]) was 1.8 µM; in the experiment on Haemonchus contortus L3 (setting [5]) it was 3.3 µM.

In the case of `N#Cc1cc2c(cn1)N(C(=O)NCc1ccnc(Cl)c1)CC21CCN(C/C=C/c2ccc(Cl)c(Cl)c2)CC1` [Example 66, (E)-N-((2-chloropyridin-4-yl)methyl)-5′-cyano-1-(3-(3,4-dichlorophenyl)allyl)spiro[piperidine-4,3′-pyrrolo[2,3-c]pyridine]-1′(2′H)-carboxamide], the inhibition constant (Ki) in experiment [1] turned out to be 24.1 nM. The minimal effective concentration in experiment [2] (setting [4]) was 10 µM; with Haemonchus contortus L3 (setting [5]), 1.8 µM.

In the case of `N#Cc1ccc2c(n1)C1(CCN(C/C=C/c3ccc(Cl)c(Cl)c3)CC1)CN2C(=O)NCc1ccnc(Cl)c1` [Example 67, (E)-N-((2-chloropyridin-4-yl)methyl)-5′-cyano-1-(3-(3,4-dichlorophenyl)allyl)spiro[piperidine-4,3′-pyrrolo[3,2-b]pyridine]-1′(2′H)-carboxamide], the Ki in experiment [1] turned out to be 33.5 nM. Further, the minimal effective concentration in experiment [2] (setting [4]) is 5.7 µM; with Haemonchus contortus L3 (setting [5]) it was 10 µM.

Regarding `COc1nccc2c1C1(CCN(C/C=C/c3ccc(Cl)c(Cl)c3)CC1)CN2C(=O)NCc1ccnc(Cl)c1` [Example 68, (E)-N-((2-chloropyridin-4-yl)methyl)-1-(3-(3,4-dichlorophenyl)allyl)-4′-methoxyspiro[piperidine-4,3′-pyrrolo[3,2-c]pyridine]-1′(2′H)-carboxamide], the Ki in experiment [1] was 815 nM. Also, the minimal effective concentration in experiment [2] (setting [4]) was found to be 1.3 µM; in the experiment on Haemonchus contortus L3 (setting [5]), 33 µM.

As for `O=C(NCc1ccnc(F)c1)N1CC2(CCN(C/C=C/c3ccc(Cl)cc3)CC2)c2cc(F)c(Cl)cc21` [Example 69, (E)-6-chloro-1′-(3-(4-chlorophenyl)allyl)-5-fluoro-N-((2-fluoropyridin-4-yl)methyl)spiro[indoline-3,4′-piperidine]-1-carboxamide], the inhibitory constant (Ki) in experiment [1] is 55.2 nM. In addition, the values for the minimal effective concentration (in experiment [2] (setting [4]); with Haemonchus contortus L3 (setting [5])) were 6.5 µM and 2.5 µM, respectively.

As for `O=C(NCc1ccnc(F)c1)N1CC2(CCN(C/C=C/c3ccc(Cl)cc3)CC2)c2cc(Cl)c(Cl)cc21` [Example 70, (E)-5,6-dichloro-1′-(3-(4-chlorophenyl)allyl)-N-((2-fluoropyridin-4-yl)methyl)spiro[indoline-3,4′-piperidine]-1-carboxamide], the inhibition constant (Ki) in experiment [1] amounted to 252 nM. Also, the minimal effective concentration was 7.6 µM in experiment [2] (setting [4]) and 3.3 µM with Haemonchus contortus L3 (setting [5]).

Turning to `O=C(NCc1ccnc(F)c1)N1CC2(CCN(C/C=C/c3ccc(Cl)cc3)CC2)c2cc(Cl)c(F)cc21` [Example 71, (E)-5-chloro-1′-(3-(4-chlorophenyl)allyl)-6-fluoro-N-((2-fluoropyridin-4-yl)methyl)spiro[indoline-3,4′-piperidine]-1-carboxamide], the Ki in experiment [1] is 31.4 nM. Besides, the minimal effective concentration (in experiment [2] (setting [4]); in the experiment on Haemonchus contortus L3 (setting [5])) was 3.3 µM each time.

For `N#Cc1ccc(/C=C/CN2CCC3(CC2)CN(C(=O)NCc2ccnc(Cl)c2)c2cc(C(F)(F)F)c(Cl)cc23)cc1` [Example 72, (E)-5-chloro-N-((2-chloropyridin-4-yl)methyl)-1′-(3-(4-cyanophenyl)allyl)-6-(trifluoromethyl)spiro[indoline-3,4′-piperidine]-1-carboxamide], in experiment [1], the inhibition constant (Ki) worked out at 27 nM. Besides, the minimal effective concentration is 3.3 µM in experiment [2] (setting [4]) and 10 µM with Haemonchus contortus L3 (setting [5]).

`O=C(NCc1ccnc(F)c1)N1CC2(CCN(C/C=C/c3ccc(Cl)cc3)CC2)c2ccc(-c3ccccc3OC(F)(F)F)cc21` [Example 73, (E)-1′-(3-(4-chlorophenyl)allyl)-N-((2-fluoropyridin-4-yl)methyl)-6-(2-(trifluoromethoxy)phenyl)spiro[indoline-3,4′-piperidine]-1-carboxamide]: the inhibition constant (Ki) in experiment [1] was 29.5 nM. Moreover, the minimal effective concentration in experiment [2] (setting [4]) was found to be 3.3 µM; with Haemonchus contortus L3 (setting [5]), 100 µM.

For the compound `O=C(NCc1ccnc(Cl)c1)N1CC2(CCN(C/C=C/c3ccc(Cl)cc3)CC2)c2cc(-n3ccccc3=O)ccc21` [Example 74, (E)-1′-(3-(4-chlorophenyl)allyl)-N-((2-chloropyridin-4-yl)methyl)-5-(2-oxopyridin-1(2H)-yl)spiro[indoline-3,4′-piperidine]-1-carboxamide], in experiment [1], the Ki turned out to be 11600 nM. Besides, the results for the minimal effective concentration (in experiment [2] (setting [4]); with Haemonchus contortus L3 (setting [5])) were 2.4 µM and 100 µM, respectively.

In the case of `O=C(NCc1ccnc(F)c1)N1CC2(CCN(C/C=C/c3ccc(Cl)cc3)CC2)c2cc(-n3ccccc3=O)ccc21` [Example 75, (E)-1′-(3-(4-chlorophenyl)allyl)-N-((2-fluoropyridin-4-yl)methyl)-5-(2-oxopyridin-1(2H)-yl)spiro[indoline-3,4′-piperidine]-1-carboxamide], the inhibitory constant (Ki) in experiment [1] was 11600 nM. In addition, the minimal effective concentration was determined as 4.4 µM in experiment [2] (setting [4]) and 100 µM with Haemonchus contortus L3 (setting [5]).

`O=C(NCc1ccnc(Cl)c1)N1CC2(CCN(C/C=C/c3ccc(Cl)cc3)CC2)c2cc(N3CCCC3)ccc21` [Example 76, (E)-1′-(3-(4-chlorophenyl)allyl)-N-((2-chloropyridin-4-yl)methyl)-5-(pyrrolidin-1-yl)spiro[indoline-3,4′-piperidine]-1-carboxamide]: in experiment [1], the Ki amounted to 1420 nM. Further, the figures for the minimal effective concentration (in experiment [2] (setting [4]); with Haemonchus contortus L3 (setting [5])) were 1.8 µM and 100 µM, respectively.

For the compound `O=C(NCc1ccnc(F)c1)N1CC2(CCN(C/C=C/c3ccc(Cl)cc3)CC2)c2cc(OC(F)(F)F)ccc21` [Example 77, (E)-1′-(3-(4-chlorophenyl)allyl)-N-((2-fluoropyridin-4-yl)methyl)-5-(trifluoromethoxy)spiro[indoline-3,4′-piperidine]-1-carboxamide], in experiment [1], the inhibitory constant (Ki) was found to be 870 nM. Besides, the minimal effective concentration in experiment [2] (72 hours, read-out: Di MF) turned out to be 3.3 µM; in the experiment with Haemonchus contortus L3 (setting [3]), 5.7 µM.

On to `O=C(NCc1ccnc(Cl)c1)N1CC2(CCN(C/C=C/c3ccc(Cl)cc3)CC2)c2cc(S(=O)(=O)C(F)(F)F)ccc21` [Example 78, (E)-1′-(3-(4-chlorophenyl)allyl)-N-((2-chloropyridin-4-yl)methyl)-5-(trifluoromethylsulfonyl)spiro[indoline-3,4′-piperidine]-1-carboxamide], for which, in experiment [1], the inhibitory constant (Ki) was found to be 1290 nM. In addition, the results for the minimal effective concentration (in experiment [2] (setting [4]); in the experiment on Haemonchus contortus L3 (setting [5])) were 1 µM and 100 µM, respectively.

With `CS(=O)(=O)c1ccc2c(c1)C1(CCN(C/C=C/c3ccc(Cl)cc3)CC1)CN2C(=O)NCc1ccnc(Cl)c1` [Example 79, (E)-1′-(3-(4-chlorophenyl)allyl)-N-((2-chloropyridin-4-yl)methyl)-5-(methylsulfonyl)spiro[indoline-3,4′-piperidine]-1-carboxamide], the inhibitory constant (Ki) in experiment [1] amounted to 11300 nM. In addition, the minimal effective concentration came to 10 µM in experiment [2] (setting [4]) and 100 µM in the experiment on Haemonchus contortus L3 (setting [5]).

As to `O=C(NCc1ccnc(Cl)c1)N1CC2(CCN(C/C=C/c3ccc(Cl)cc3)CC2)c2cc(SC(F)(F)F)ccc21` [Example 80, (E)-1′-(3-(4-chlorophenyl)allyl)-N-((2-chloropyridin-4-yl)methyl)-5-(trifluoromethylthio)spiro[indoline-3,4′-piperidine]-1-carboxamide], the inhibitory constant (Ki) in experiment [1] was found to be 191 nM. The minimal effective concentration was 10 µM in experiment [2] (setting [4]) and 100 µM in the experiment with Haemonchus contortus L3 (setting [5]).

With `O=C(NCc1ccnc(Cl)c1)N1CC2(CCN(C/C=C/c3ccc(Cl)cc3)CC2)c2cc(-c3nccs3)ccc21` [Example 81, (E)-1′-(3-(4-chlorophenyl)allyl)-N-((2-chloropyridin-4-yl)methyl)-5-(thiazol-2-yl)spiro[indoline-3,4′-piperidine]-1-carboxamide], in experiment [1], the Ki was 308 nM. Besides, the minimal effective concentration in experiment [2] (setting [4]) was found to be 7.6 µM; with Haemonchus contortus L3 (setting [5]), 100 µM.

Turning to `O=C(NCc1ccnc(F)c1)N1CC2(CCN(C/C=C/c3ccc(Cl)cc3)CC2)c2cc(C(F)(F)F)ccc21` [Example 82, (E)-1′-(3-(4-chlorophenyl)allyl)-N-((2-fluoropyridin-4-yl)methyl)-5-(trifluoromethyl)spiro[indoline-3,4′-piperidine]-1-carboxamide], in experiment [1], the Ki turned out to be 572 nM. Moreover, the minimal effective concentration in experiment [2] (setting [4]) amounted to 4.4 µM; with Haemonchus contortus L3 (setting [5]), 7.6 µM.
